US20240327392A1, “HETEROCYCLOALKYL-SUBSTITUTED POLYHETEROAZOLE DERIVATIVES AS MEDICAMENTS FOR TREATING AND/OR PREVENTING RS VIRUS INFECTIONS” (ALBIUS SCIENCES ALPHA PRIVATE LIMITED, priority 2021, published 2024)

The compounds below were run on human RS virus A2 strain (assay: In vitro test for anti-RS virus proliferation inhibitory activity (quantitative RT-PCR of RS virus RNA copy number in infected Vero cells)). Conditions: 72 h; Vero cells infected with human RS virus A2 strain, 3 days of incubation, RS virus N gene RNA copy number by quantitative RT-PCR; read-out: Anti-RS virus Activity.
Assay type: cell-based
Summary of the method: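 Vero cells infected with RSV A2 (1.7×10^4 TCID50/mL in inoculum mix) with compound in 10% FCS EMEM, 3 days at 37 °C, 5% CO2. Lysate viral N-gene RNA quantified by one-step SYBR qRT-PCR; copy number by comparative Ct relative to untreated infected cells.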

Question: With `O=S(=O)(c1ccccc1)N1C[C@H](O)C[C@H]1c1nc(CCCc2ccccc2)no1` [Compound 3D, 3-(3-phenylpropyl)-5-[(2S,4R)-1-benzenesulfonyl-4-hydroxypyrrolidin-2-yl]-1,2,4-oxadiazole] as the compound, how does the IC50 read?
Answer: > 50 µM

Same assay, conditions: 72 h; Vero cells infected with human RS virus A2 strain, 3 days of incubation, RS virus RNA copy number by quantitative RT-PCR; read-out: Anti-RS virus Activity

Question: `CC(C)(C)OC(=O)N1C[C@H](c2ccccc2)C[C@H]1c1nc(CCc2ccccc2)no1` [Compound C2-7-1, Tert-butyl (2S,4S)-2-(3-phenethyl-1,2,4-oxadiazol-5-yl)-4-phenylpyrrolidine-1-carboxylate] was tested. Which IC50 did it give?
Answer: 10 to 50 µM

Question: How did the IC50 turn out when `CC(C)[C@@H]1CC[C@@H](C)C[C@H]1OC(=O)N1CCC[C@H]1c1nc(CCCc2ccccc2)no1` [Compound 1N, (−)-menthyl (S)-2-(3-(3-phenylpropyl)-1,2,4-oxadiazol-5-yl) pyrrolidine-1-carboxylate] was run?
Answer: 10 to 50 µM

Question: Which IC50 does the source give for `CC(=O)N1CCC[C@H]1c1nc(CCCc2ccccc2)no1` [Compound 1R] here?
Answer: 10 to 50 µM

Question: `O=C(NCc1ccccc1)N1CCC[C@H]1c1nc(CCCc2ccccc2)no1` [Compound 1F, (S)—N-Benzyl-2-(3-(3-phenylpropyl)-1,2,4-oxadiazol-5-yl) pyrrolidine-1-carboxamide] was tested. Which IC50 did it give?
Answer: 10 to 50 µM

Question: For `COc1ccc(CCCc2noc([C@@H]3CCCCN3S(=O)(=O)C3CCCCC3)n2)cc1OC` [Compound 22B, (S)-5-(1-(cyclohexylsulfonyl)piperidin-2-yl)-3-(3-(3,4-dimethoxyphenyl)propyl)-1,2,4-oxadiazole], which IC50 is on record?
Answer: < 10 µM
